Results: patent US20130205438A1, “DOUBLING OF CHROMOSOMES IN HAPLOID EMBRYOS” (PIONEER HI BRED INTERNATIONAL INC, priority 2005, published 2013)
Marks after values point to notes of the source that are not given here.

Key:
Format in all cases: in vivo
[1] = system: ears of hybrid maize plants pollinated by haploid inducer plants; experiment: Immature ear treatment for haploid doubling, ear/stalk in liquid medium with Pronamide (Example 6); conditions: 5 uM Pronamide, 0.5% DMSO, one day
Text: Hybrid maize plants were pollinated by haploid inducer plants. The ears with part of the stalks attached were harvested from the hybrid plants 4-6 days after pollination (embryo length less than 0.4 mm). The stalks were about 4-8 inches long on each side of where the ears were attached. The ears and the attached stalks are surface sterilized with 70% ethanol or 5% Chlorox. The lower ends of the stalks containing the ears were emerged into liquid medium containing MS medium, MS vitamins, sucrose, etc and 5 uM Pronamide, 0.5% DM SO for one day at 26 C. Then the ears still contained an the stalks were moved to a fresh medium containing MS medium, MS vitamins, sucrose etc. without doubling agent to allow the embryos and kernels to develop. The embryos within the ear can be isolated at any time after doubling. Embryo rescue can then be used to germinate immature embryos into plants. The germinated plants were grown to examine fertility.

[2] = system: immature embryos of hybrid maize plants pollinated with maternal-haploid-inducing line; experiment: Testing different hybrids and timing of doubling agent (Example 9)
Description: A maternal-haploid-inducing maize line was used to pollinate 4 different hybrid plants. The immature embryos derived from these crosses were isolated and placed directly on embryo rescue medium containing 5 uM pronamide. Embryos were kept on the pronamide medium for approximately 36 or 48 hours before being transferred to new media without the doubling agent.
The plantlets germinated from these treated embryos were then transferred into tubes until healthy plantlets with good roofs developed. These plantlets were then transferred to soil and grown in a regular greenhouse to maturation. The plants were self-pollinated and the mature seeds were harvested.

[3] = system: haploid embryos of maize lines "B" and "C"; experiment: Chromosome doubling of isolated haploid immature maize embryos on pronamide medium (Example 3); conditions: 6 uM pronamide, 48 hours
Description: Two different diploid maize lines, “B” and “C” were pollinated with a haploid inducer line, containing homozygousGFP. Immature embryos were isolated at 11 days after pollination and embryo size ranged from 1.5-1.6 mm in length. The diploid embryos, embryos showing GFP expression, were discarded. The haploid embryos, embryos not expressing GFP, were cultured on a modified MS medium containing 6 uM pronamide with scutellum side up for 48 hours at 26 C in dark. Alter approximately 48 hours the embryos were transferred to a modified MS medium without any doubling agent. Embryos were placed with scutellum side down for 6-10 days at 26 C in the dark. The plantlets germinated torn these treated embryos were then moved into a light culture room at 28 C for another 3 weeks till healthy plantlets with good roots developed. These plantlets were then transferred to soil and grown in a regular greenhouse to maturation. The plants were self pollinated and the mature seeds will be harvested. The harvested seed will be planted as an ear-row. The plants within a row will be examined for uniformity of the plant morphology.

[4] = system: haploid embryos of maize plant "A"; experiment: Chromosome doubling of isolated haploid immature maize embryos on colchicine medium (Example 2); conditions: 0.05% colchicine, 24 hours
Description: A diploid maize plant, “A”, was pollinated with a haploid inducer line containing GFP. Immature embryos were isolated at 12 days after pollination and the embryo size is ranged from 1.9-2.0 mm long. The diploid embryos, GFP expressing embryos, were discarded. The haploid embryos, based on the absence of the GFP marker expression, were cultured on a medium comprising MS salts, MS vitamins, thiamine, asparagine, BAP, sucrose, gelrite, and 0.05% colchicine with scutellum side up for 24 hours at 26 C in the dark. […] This medium comprised MS salts, MS vitamins, myo-inositol, sucrose, and gelrite. The plantlets germinated from these treated embryos, were transferred to a light culture room at 26 C for another 2 -3 weeks until healthy plantlets with good roots developed. These plantlets were transferred to soil and grown in a regular greenhouse to maturation. The plants were self-pollinated and the mature seeds will be harvested. The harvested seed from each plant will be grown as an ear-row and the plants will examined for uniformity of the plant morphology within each ear-row.

[5] = Ear 1, ear/stalk harvest 6 days after pollination
[6] = Ear 2, ear/stalk harvest 6 days after pollination
[7] = Ear 3, ear/stalk harvest 5 days after pollination
[8] = Ear 4, ear/stalk harvest 4 days after pollination

## C#CC(C)(C)NC(=O)c1cc(Cl)cc(Cl)c1 [pronamide, 3,5-dichloro-N-(1,1-dimethyl-2-propynyl)benzamide]
[1]; [5]
  % of plants with fertile tassel: 67%
  Number of plants with fertile tassel: 16
  Number of plants with sterile tassel: 8
[1]; [6]
  % of plants with fertile tassel: 94%
  Number of plants with fertile tassel: 30
  Number of plants with sterile tassel: 2
[1]; [7]
  % of plants with fertile tassel: 70%
  Number of plants with fertile tassel: 14
  Number of plants with sterile tassel: 6
[1]; [8]
  % of plants with fertile tassel: 95%
  Number of plants with fertile tassel: 19
  Number of plants with sterile tassel: 1
[1]; Sum of 4 ears
  % of plants with fertile tassel: 82%
  Number of plants with fertile tassel: 79
  Number of plants with sterile tassel: 17
[2]; 5 uM Pronamide 36 hours, Hybrid 1, 11 days after pollination, 100 embryos excised, embryo size 2.5 mm
  # of Double Haploid Plants with Ears: 1
[2]; 5 uM Pronamide 36 hours, Hybrid 1, 12 days after pollination, 300 embryos excised, embryo size 2.5 mm
  # of Double Haploid Plants with Ears: 1
[2]; 5 uM Pronamide 36 hours, Hybrid 2, 11 days after pollination, 176 embryos excised, embryo size 2.5-3 mm
  # of Double Haploid Plants with Ears: 4
[2]; 5 uM Pronamide 36 hours, Hybrid 3, 12 days after pollination, 279 embryos excised, embryo size 2.5-3 mm
  # of Double Haploid Plants with Ears: 13
[2]; 5 uM Pronamide 36 hours, Hybrid 4, 12 days after pollination, 322 embryos excised, embryo size 2.5 mm
  # of Double Haploid Plants with Ears: 2
[2]; 5 uM Pronamide 48 hours, Hybrid 3, 10 days after pollination, 236 embryos excised, embryo size 2 mm
  # of Double Haploid Plants with Ears: 6
[2]; 5 uM Pronamide 48 hours, Hybrid 4, 10 days after pollination, 144 embryos excised, embryo size 2 mm
  # of Double Haploid Plants with Ears: 3
[2]; 5 uM pronamide 36 or 48 hours, sample of plants, 120 molecular markers
  Homozygosity of progeny of double haploid plants: confirmed for homozygosity
[3]; Line B, 11 haploid embryos
  Fully Fertile Plant: 2*
[3]; Line C, 4 haploid embryos
  Fully Fertile Plant: 3
[3]; Sum of lines B and C
  Fully Fertile Plant, percent of plantlets to greenhouse: (83.3%)
  Plantlet Germinated, percent of haploid embryos: (53.3%)
[3]; Sum of lines B and C, 15 haploid embryos
  Fully Fertile Plant: 5

## COc1cc2c(c(OC)c1OC)-c1ccc(OC)c(=O)cc1[C@@H](NC(C)=O)CC2 [colchicine, (S)-N-(5,6,7,9-tetrahydro-1,2,3,10-tetramethoxy-9-oxobenzo (a)heptalen-7-yl) acetamide]
[4]; Ear 1, 3 haploid embryos
  Fully Fertile Plants: 2
[4]; Ear 2, 7 haploid embryos
  Fully Fertile Plants: 4*
[4]; Ear 3, 9 haploid embryos
  Fully Fertile Plants: 8
[4]; Sum of 3 ears
  Fully Fertile Plants, percent of plantlets to greenhouse: (93.3%)
  Plantlets Germinated, percent of haploid embryos: (84.2%)
[4]; Sum of 3 ears, 19 haploid embryos
  Fully Fertile Plants: 14
